US10004701B2, “Methods and compositions for treating infection” (UNIVERSITY OF ROCHESTER, priority 2012, dated 2018)

Experiments:
Assay in all cases: AK assay 384-well format, Prestwick library screening
E. coli = format: cell-based, Escherichia coli; conditions: 50 μM final drug concentration; for AK-based Prestwick Library Screening Results: E. coli (increase in extracellular AK activity): 384-well
K. pneumoniae = format: cell-based, Klebsiella pneumoniae; conditions: 50 μM final drug concentration; for AK-based Prestwick Library Screening Results: K. pneumoniae (increase in extracellular AK activity): 384-well
E. cloacae = format: cell-based, Enterobacter cloacae; conditions: 50 μM final drug concentration; for AK-based Prestwick Library Screening Results: E. cloacae (increase in extracellular AK activity): 384-well
P. aeruginosa = format: cell-based, Pseudomonas aeruginosa; conditions: 50 μM final drug concentration; for AK-based Prestwick Library Screening Results: P. aeruginosa (increase in extracellular AK activity): 384-well
E. faecium = format: cell-based, Enterococcus faecium; conditions: 50 μM final drug concentration; for AK-based Prestwick Library Screening Results: E. faecium (increase in extracellular AK activity): 384-well
[1] = test system: A. baumannii strain 98-37-09; format: cell-based, Acinetobacter baumannii; conditions: 50 μM final drug concentration; for AK-based Prestwick Library Screening Results: A. baumannii (increase in extracellular AK activity): 384-well
[2] = test system: S. aureus strain USA300-0114; format: cell-based, Staphylococcus aureus; conditions: 50 μM final drug concentration; for AK-based Prestwick Library Screening Results: S. aureus (increase in extracellular AK activity): 384-well
[3] = planktonic E. coli, cutoff for positive-scoring molecules 3-fold increase
[4] = planktonic K. pneumoniae, cutoff for positive-scoring molecules 3-fold increase
[5] = planktonic E. cloacae, cutoff for positive-scoring molecules 3-fold increase
[6] = planktonic P. aeruginosa, cutoff for positive-scoring molecules 3-fold increase
[7] = planktonic E. faecium, cutoff for positive-scoring molecules 3-fold increase
[8] = planktonic A. baumannii, cutoff for positive-scoring molecules 3-fold increase
[9] = planktonic S. aureus, cutoff for positive-scoring molecules 3-fold increase
[10] = 384-well format, cutoff for positive-scoring molecules 3-fold increase
[11] = planktonic, cutoff for positive 3-fold increase
[12] = cutoff for positive-scoring molecules 3-fold increase
[13] = planktonic, cutoff for positive-scoring molecules 3-fold increase

Ifenprodil tartrate
AK-based Prestwick Library Screening Results: E. coli (increase in extracellular AK activity) (E. coli; [3]): 1.2 | AK-based Prestwick Library Screening Results: K. pneumoniae (increase in extracellular AK activity) (K. pneumoniae; [4]): 1.3 | AK-based Prestwick Library Screening Results: E. cloacae (increase in extracellular AK activity) (E. cloacae; [5]): 1.3 | AK-based Prestwick Library Screening Results: P. aeruginosa (increase in extracellular AK activity) (P. aeruginosa; [6]): 1.2 | AK-based Prestwick Library Screening Results: E. faecium (increase in extracellular AK activity) (E. faecium; [7]): 1.0 | AK-based Prestwick Library Screening Results: A. baumannii (increase in extracellular AK activity) [1, 8]: 1.4 | AK-based Prestwick Library Screening Results: S. aureus (increase in extracellular AK activity) [2, 9]: 1.1

Iobenguane sulfate
AK-based Prestwick Library Screening Results, E. coli (increase in extracellular AK activity) (E. coli; [3]): 0.5 | AK-based Prestwick Library Screening Results, K. pneumoniae (increase in extracellular AK activity) (K. pneumoniae; [4]): 0.5 | AK-based Prestwick Library Screening Results, E. cloacae (increase in extracellular AK activity) (E. cloacae; [5]): 0.6 | AK-based Prestwick Library Screening Results, P. aeruginosa (increase in extracellular AK activity) (P. aeruginosa; [6]): 0.4 | AK-based Prestwick Library Screening Results, E. faecium (increase in extracellular AK activity) (E. faecium; [7]): 0.9 | AK-based Prestwick Library Screening Results, A. baumannii (increase in extracellular AK activity) [1, 8]: 0.5 | AK-based Prestwick Library Screening Results, S. aureus (increase in extracellular AK activity) [2, 9]: 0.5

Iproniazide phosphate
AK-based Prestwick Library Screening Results, E. coli (increase in extracellular AK activity) (E. coli; [10]): 0.8 | AK-based Prestwick Library Screening Results, K. pneumoniae (increase in extracellular AK activity) (K. pneumoniae; [10]): 0.7 | AK-based Prestwick Library Screening Results, E. cloacae (increase in extracellular AK activity) (E. cloacae; [10]): 0.8 | AK-based Prestwick Library Screening Results, P. aeruginosa (increase in extracellular AK activity) (P. aeruginosa; [10]): 0.7 | AK-based Prestwick Library Screening Results, E. faecium (increase in extracellular AK activity) (E. faecium; [10]): 1.0 | AK-based Prestwick Library Screening Results, A. baumannii (increase in extracellular AK activity) [1, 10]: 0.7 | AK-based Prestwick Library Screening Results, S. aureus (increase in extracellular AK activity) [2, 10]: 1.0

Isoetharine mesylate salt
AK-based Prestwick Library Screening Results, E. coli (fold increase in extracellular AK activity) (E. coli; planktonic, […]): 0.9 | AK-based Prestwick Library Screening Results, K. pneumoniae (fold increase in extracellular AK activity) (K. pneumoniae; planktonic, […]): 1.4 | AK-based Prestwick Library Screening Results, E. cloacae (fold increase in extracellular AK activity) (E. cloacae; planktonic, […]): 0.9 | AK-based Prestwick Library Screening Results, P. aeruginosa (fold increase in extracellular AK activity) (P. aeruginosa; planktonic, […]): 0.6 | AK-based Prestwick Library Screening Results, E. faecium (fold increase in extracellular AK activity) (E. faecium; planktonic, […]): 0.9 | AK-based Prestwick Library Screening Results, A. baumannii (fold increase in extracellular AK activity) ([1]; planktonic, […]): 0.8 | AK-based Prestwick Library Screening Results, S. aureus (fold increase in extracellular AK activity) ([2]; planktonic, […]): 0.6

Ketanserin tartrate hydrate
AK-based Prestwick Library Screening Results, E. coli (fold increase in extracellular AK activity) (E. coli; [11]): 1.3 | AK-based Prestwick Library Screening Results, K. pneumoniae (fold increase in extracellular AK activity) (K. pneumoniae; [11]): 1.0 | AK-based Prestwick Library Screening Results, E. cloacae (fold increase in extracellular AK activity) (E. cloacae; [11]): 1.4 | AK-based Prestwick Library Screening Results, P. aeruginosa (fold increase in extracellular AK activity) (P. aeruginosa; [11]): 1.0 | AK-based Prestwick Library Screening Results, E. faecium (fold increase in extracellular AK activity) (E. faecium; [11]): 1.0 | AK-based Prestwick Library Screening Results, A. baumannii (fold increase in extracellular AK activity) [1, 11]: 1.2 | AK-based Prestwick Library Screening Results, S. aureus (fold increase in extracellular AK activity) [2, 11]: 1.0

Lycorine hydrochloride
AK-based Prestwick Library Screening Results, E. coli (fold increase in extracellular AK activity) (E. coli; planktonic, […]): 1.0 | AK-based Prestwick Library Screening Results, K. pneumoniae (fold increase in extracellular AK activity) (K. pneumoniae; planktonic, […]): 0.8 | AK-based Prestwick Library Screening Results, E. cloacae (fold increase in extracellular AK activity) (E. cloacae; planktonic, […]): 1.5 | AK-based Prestwick Library Screening Results, P. aeruginosa (fold increase in extracellular AK activity) (P. aeruginosa; planktonic, […]): 1.1 | AK-based Prestwick Library Screening Results, E. faecium (fold increase in extracellular AK activity) (E. faecium; planktonic, […]): 1.0 | AK-based Prestwick Library Screening Results, A. baumannii (fold increase in extracellular AK activity) ([1]; planktonic, […]): 1.0 | AK-based Prestwick Library Screening Results, S. aureus (fold increase in extracellular AK activity) ([2]; planktonic, […]): 1.4

Mephentermine hemisulfate
AK-based Prestwick Library Screening Results, E. coli (fold increase in extracellular AK activity) (E. coli; planktonic, […]): 0.5 | AK-based Prestwick Library Screening Results, K. pneumoniae (fold increase in extracellular AK activity) (K. pneumoniae; planktonic, […]): 0.5 | AK-based Prestwick Library Screening Results, E. cloacae (fold increase in extracellular AK activity) (E. cloacae; planktonic, […]): 0.4 | AK-based Prestwick Library Screening Results, P. aeruginosa (fold increase in extracellular AK activity) (P. aeruginosa; planktonic, […]): 0.4 | AK-based Prestwick Library Screening Results, E. faecium (fold increase in extracellular AK activity) (E. faecium; planktonic, […]): 0.8 | AK-based Prestwick Library Screening Results, A. baumannii (fold increase in extracellular AK activity) ([1]; planktonic, […]): 0.4 | AK-based Prestwick Library Screening Results, S. aureus (fold increase in extracellular AK activity) ([2]; planktonic, […]): 0.4

Pizotifen malate
AK-based Prestwick library screening result, E. coli (fold increase in extracellular AK activity) (E. coli; planktonic E. coli, positive cutoff 3-fold increase): 1.0 | AK-based Prestwick library screening result, K. pneumoniae (fold increase in extracellular AK activity) (K. pneumoniae; planktonic K. pneumoniae, positive cutoff 3-fold increase): 0.7 | AK-based Prestwick library screening result, E. cloacae (fold increase in extracellular AK activity) (E. cloacae; planktonic E. cloacae, positive cutoff 3-fold increase): 1.3 | AK-based Prestwick library screening result, P. aeruginosa (fold increase in extracellular AK activity) (P. aeruginosa; planktonic P. aeruginosa, positive cutoff 3-fold increase): 0.8 | AK-based Prestwick library screening result, E. faecium (fold increase in extracellular AK activity) (E. faecium; planktonic E. faecium, positive cutoff 3-fold increase): 1.0 | AK-based Prestwick library screening result, A. baumannii (fold increase in extracellular AK activity) ([1]; planktonic A. baumannii, positive cutoff 3-fold increase): 0.8 | AK-based Prestwick library screening result, S. aureus (fold increase in extracellular AK activity) ([2]; planktonic S. aureus, positive cutoff 3-fold increase): 0.7

Pridinol methanesulfonate salt
AK-based Prestwick Library Screening Results, E. coli (fold increase in extracellular AK activity) (E. coli; […]): 1.1 | AK-based Prestwick Library Screening Results, K. pneumoniae (fold increase in extracellular AK activity) (K. pneumoniae; […]): 0.9 | AK-based Prestwick Library Screening Results, E. cloacae (fold increase in extracellular AK activity) (E. cloacae; […]): 1.6 | AK-based Prestwick Library Screening Results, P. aeruginosa (fold increase in extracellular AK activity) (P. aeruginosa; […]): 1.1 | AK-based Prestwick Library Screening Results, E. faecium (fold increase in extracellular AK activity) (E. faecium; […]): 1.1 | AK-based Prestwick Library Screening Results, A. baumannii (fold increase in extracellular AK activity) ([1]; […]): 1.1 | AK-based Prestwick Library Screening Results, S. aureus (fold increase in extracellular AK activity) ([2]; […]): 1.2

Pyrantel tartrate
AK-based Prestwick Library Screening Results: E. coli (increase in extracellular AK activity) (E. coli; [3]): 1.3 | AK-based Prestwick Library Screening Results: K. pneumoniae (increase in extracellular AK activity) (K. pneumoniae; [4]): 0.9 | AK-based Prestwick Library Screening Results: E. cloacae (increase in extracellular AK activity) (E. cloacae; [5]): 1.4 | AK-based Prestwick Library Screening Results: P. aeruginosa (increase in extracellular AK activity) (P. aeruginosa; [6]): 1.2 | AK-based Prestwick Library Screening Results: E. faecium (increase in extracellular AK activity) (E. faecium; [7]): 1.1 | AK-based Prestwick Library Screening Results: A. baumannii (increase in extracellular AK activity) [1, 8]: 1.1 | AK-based Prestwick Library Screening Results: S. aureus (increase in extracellular AK activity) [2, 9]: 1.2

Retrorsine
AK-based Prestwick Library Screening Results, E. coli (fold increase in extracellular AK activity) (E. coli; planktonic, […]): 1.3 | AK-based Prestwick Library Screening Results, K. pneumoniae (fold increase in extracellular AK activity) (K. pneumoniae; planktonic, […]): 1.2 | AK-based Prestwick Library Screening Results, E. cloacae (fold increase in extracellular AK activity) (E. cloacae; planktonic, […]): 1.5 | AK-based Prestwick Library Screening Results, P. aeruginosa (fold increase in extracellular AK activity) (P. aeruginosa; planktonic, […]): 1.2 | AK-based Prestwick Library Screening Results, E. faecium (fold increase in extracellular AK activity) (E. faecium; planktonic, […]): 1.0 | AK-based Prestwick Library Screening Results, A. baumannii (fold increase in extracellular AK activity) ([1]; planktonic, […]): 1.2 | AK-based Prestwick Library Screening Results, S. aureus (fold increase in extracellular AK activity) ([2]; planktonic, […]): 1.2

S(−)Eticlopride hydrochloride
AK-based Prestwick Library Screening Results, E. coli (fold increase in extracellular AK activity) (E. coli; [12]): 0.9 | AK-based Prestwick Library Screening Results, K. pneumoniae (fold increase in extracellular AK activity) (K. pneumoniae; [12]): 1.1 | AK-based Prestwick Library Screening Results, E. cloacae (fold increase in extracellular AK activity) (E. cloacae; [12]): 1.8 | AK-based Prestwick Library Screening Results, P. aeruginosa (fold increase in extracellular AK activity) (P. aeruginosa; [12]): 1.3 | AK-based Prestwick Library Screening Results, E. faecium (fold increase in extracellular AK activity) (E. faecium; [12]): 1.0 | AK-based Prestwick Library Screening Results, A. baumannii (fold increase in extracellular AK activity) [1, 12]: 1.0 | AK-based Prestwick Library Screening Results, S. aureus (fold increase in extracellular AK activity) [2, 12]: 1.6

Spiramycin
AK-based Prestwick Library Screening Results, E. coli (fold increase in extracellular AK activity) (E. coli; [13]): 0.9 | AK-based Prestwick Library Screening Results, K. pneumoniae (fold increase in extracellular AK activity) (K. pneumoniae; [13]): 0.8 | AK-based Prestwick Library Screening Results, E. cloacae (fold increase in extracellular AK activity) (E. cloacae; [13]): 1.2 | AK-based Prestwick Library Screening Results, P. aeruginosa (fold increase in extracellular AK activity) (P. aeruginosa; [13]): 0.7 | AK-based Prestwick Library Screening Results, E. faecium (fold increase in extracellular AK activity) (E. faecium; [13]): 1.0 | AK-based Prestwick Library Screening Results, A. baumannii (fold increase in extracellular AK activity) [1, 13]: 0.9 | AK-based Prestwick Library Screening Results, S. aureus (fold increase in extracellular AK activity) [2, 13]: 6.6

Terbutaline hemisulfate
AK-based Prestwick Library Screening Results, E. coli (fold increase in extracellular AK activity) (E. coli; [11]): 1.2 | AK-based Prestwick Library Screening Results, K. pneumoniae (fold increase in extracellular AK activity) (K. pneumoniae; [11]): 1.3 | AK-based Prestwick Library Screening Results, E. cloacae (fold increase in extracellular AK activity) (E. cloacae; [11]): 1.4 | AK-based Prestwick Library Screening Results, P. aeruginosa (fold increase in extracellular AK activity) (P. aeruginosa; [11]): 1.1 | AK-based Prestwick Library Screening Results, E. faecium (fold increase in extracellular AK activity) (E. faecium; [11]): 1.0 | AK-based Prestwick Library Screening Results, A. baumannii (fold increase in extracellular AK activity) [1, 11]: 1.1 | AK-based Prestwick Library Screening Results, S. aureus (fold increase in extracellular AK activity) [2, 11]: 1.1
